# Source: article PMC8364938 (MicrobiologyOpen, 2021)
# Test system: 9His-cgLAAO1
# Experiment: coupled peroxidase/o-dianisidine assay, Hanes-Woolf
# Type: biochemical, Colletotrichum gloeosporioides
# Conditions: 50 mM TEA/HCl pH 7.0, 30 °C
row,Compound,Km [µM]
1,NC(=O)CC[C@H](N)C(=O)O [L-glutamine],760 ± 100
2,CC(C)C[C@H](N)C(=O)O [L-leucine],1200 ± 200
3,COC(=O)[C@@H](N)CC(C)C [L-leucine methyl ester],12900 ± 300

# Continued, values first:
row,Km [µM],Compound
1,320 ± 30,N[C@@H](Cc1ccccc1)C(=O)O [L-phenylalanine]
2,1060 ± 500,CSCC[C@H](N)C(=O)O [L-methionine]
